Measured values taken from EPA's ToxValDB 9.5 (doi:10.2903/j.efsa.2016.4574).
Values after ≈ are worked out from the molar mass of the structure shown.

Legend:
Folsomia candida = conditions: chronic/long-term; duration: 28 days; mortality
Hypoaspis aculeifer = conditions: chronic/long-term; duration: 14 days; mortality
Oncorhynchus mykiss = conditions: acute; duration: 96 hours; mortality
Tagia sp. = conditions: for LC50: acute, duration: 14 days, mortality; for NOEC: chronic/long-term, duration: 56 days, growth
Apis mellifera = conditions: acute, duration: 48 hours, mortality
Canidae = conditions: Dog Other, clinical chemistry
Colinus virginianus = conditions: chronic
Coturnix japonica = conditions: acute; oral; mortality
Daphnia magna = conditions: chronic/long-term; duration: 21 days
Lepomis macrochirus = conditions: acute; duration: 96 hours; mortality
Oryctolagus sp. = conditions: reproduction developmental; body weight
Pimephales promelas = conditions: chronic/long-term; duration: 28 days; growth
Typhlodromus pyri = assay: LR50; higher = less toxic; conditions: not reported; no effects

SMILES: C=CCNC(=O)c1c([Si](C)(C)C)sc(C(=O)O)c1C [Silthiofam allyl acid]
- NOEC (Folsomia candida): 0.207 mg/kg
- NOEC (Hypoaspis aculeifer): 0.207 mg/kg
- LC50 (Oncorhynchus mykiss): > 113 µg/mL
- LC50 (Tagia sp.): > 466 mg/kg
- NOEC (Tagia sp.): 0.207 mg/kg

SMILES: Cc1c(C(=O)O)sc([Si](C)(C)C)c1C(N)=O [Silthiofam amide acid]
- NOEC (Folsomia candida): 0.194 mg/kg
- NOEC (Hypoaspis aculeifer): 0.194 mg/kg
- LC50 (Oncorhynchus mykiss): > 110 µg/mL
- LC50 (Tagia sp.): > 460 mg/kg
- NOEC (Tagia sp.): 0.194 mg/kg

SMILES: C=CCNC(=O)c1c([Si](C)(C)C)sc(C)c1C [Silthiofam]
- LD50 (Apis mellifera; dermal): > 100 µg/piece
- LD50 (Apis mellifera; oral, unspecified): > 106 µg/piece
- NOAEL (Canidae; chronic, duration: 1 years, oral): 10 mg/kg-day
- NOAEL (Canidae; subchronic, duration: 90 days): 10 mg/kg-day
- NOEL (Colinus virginianus): 250 mg/kg-day
- LD50 (Coturnix japonica): > 2250 mg/kg-day
- NOEC (Daphnia magna): 0.47 mg/L
- NOEC (Folsomia candida): 1.33 mg/kg
- LC50 (Lepomis macrochirus): 11 µg/mL (≈ 41.1 µM)
- NOAEL (Oryctolagus sp.): 20 mg/kg-day
- NOEC (Pimephales promelas): 0.89 mg/L
- LD50 (Rattus norvegicus; acute, oral, mortality): > 5000 mg/kg
- NOAEL (Rattus norvegicus; chronic, duration: 2 years, M, histopathology: neoplastic): 5 mg/kg-day
- NOEL (Rattus norvegicus; reproduction developmental, body weight): 23.5 mg/kg-day
- LC50 (Tagia sp.): 66.5 mg/kg
- NOEC (Tagia sp.): 30 mg/kg
- LR50 (Typhlodromus pyri): > 40 g/ha
